Reference: US8901175B2 (priority 2008, dated 2014)
Where a name gives a salt, the structure may show the parent alone. Residues, ends and D or L forms follow the SMILES beside them. *: point of attachment. Cbz = O=C(OCc1ccccc1)*; CH2F = FC*

Experiments:
[1] = test system: HL-60 cells; assay: Inhibition of methadone induced apoptosis by zVAD.fmk in HL-60 cells; assay type: cell-based, human; conditions: 50 μM zVAD.fmk, preincubated 1 h before methadone
[2] = test system: CEM cells; assay: Inhibition of methadone induced apoptosis by zVAD.fmk in CEM cells; assay type: cell-based, human; conditions: 50 μM zVAD.fmk, preincubated 1 h before methadone
[3] = test system: B-ALL (B-Cell lymphatic leukaemia) cells; assay: Induction of apoptosis in B-ALL cells isolated from patients ex vivo; assay type: cell-based, human; conditions: B-ALL patient cells; 10 μM methadone; 72 h
[4] = test system: CD95-resistant leukaemia cells CEM^CD95R; assay: Induction of apoptosis in CD95-resistant CEM cells; assay type: cell-based, human; conditions: 30, 20, 15 μM methadone, 24 h and 48 h
[5] = test system: CD95-resistant leukaemia cells CEM^CD95R; assay: Western blot analysis in CEM^CD95R cells; assay type: cell-based, human; conditions: 20, 15 μM methadone, 24 h and 48 h
[6] = test system: doxorubicin-resistant leukaemia cells CEM^DoxoR; assay: Western blot analysis in CEM^DoxoR cells; assay type: cell-based, human; conditions: 20, 15 μM methadone, 24 h and 48 h
[7] = test system: doxorubicin-resistant CEM leukaemia cells (CEM^DoxoR); assay: Induction of apoptosis in doxorubicin-resistant CEM cells; assay type: cell-based, human; conditions: 30, 20, 15 μM methadone, 24 h and 48 h
[8] = test system: leukaemia cells; assay: Western blot analysis in leukaemia cells (caspase-8, Bax, CD95); assay type: cell-based, human
Text: Western blot analyses were done as described (Friesen et al. 2004, Friesen et al. 2003). Immunodetection of PARP, caspase-3, caspase-9, caspase-8, XIAP, CD95, CD95-L, Bax, Bcl-xL and β-actin was done using rabbit anti-PARP polyclonal antibody (1:5000, Roche), mouse-anti-caspase-3 monoclonal antibody (1:1000, Cell-Signalling), mouse-anti-caspase-8 monoclonal antibody (1:1000, Cell-Signalling), rabbit- anti-active-caspase-9 polyclonal antibody (1:1000, Cell-Signalling), mouse-anti-XIAP monoclonal antibody (1:1000, Transduction-Laboratories, Lexington, Ky.), mouse-anti-Fas (anti-CD95) monoclonal antibody (1:1000, Transduction-Laboratories), mouse-anti-Fas ligand (anti-CD95-ligand) monoclonal antibody (1:250, BD, Pharmingen), rabbit-anti-Bax polyclonal antibody (1:250, Oncogene, Cambridge), rabbit-anti-Bcl-XS/L. polyclonal antibody (1:1000, Santa-Cruz-Biotechnology, Santa-Cruz, Calif.), rabbit-anti-p21 polyclonal antibody (1:1000, Santa-Cruz), and mouse anti-β-actin monoclonal antibody (Sigma). Peroxidase-conjugated goat-anti-mouse IgG or peroxidase-conjugated goat-anti-rabbit IgG (1:5000, Santa-Cruz) as secondary antibody were used for the enhanced chemoluminescence system (ECL, Amersham-Pharmacia, Freiburg, Germany). Equal protein loading was controlled by β-actin detection.

[9] = test system: HL-60 leukaemia cells; assay: Western blot analysis in HL-60 cells; assay type: cell-based, human; conditions: 20, 15 μM methadone, 24 h and 48 h
[10] = test system: human glioblastoma cell line A172; assay: Induction of apoptosis in A172 glioblastoma cells, flow cytometry; assay type: cell-based
[11] = test system: CEM leukaemia cells; assay: Western blot analysis in CEM cells; assay type: cell-based, human; conditions: 20, 15 μM methadone, 24 h and 48 h
[12] = test system: human myeloid leukaemia cell line HL-60; assay: Induction of apoptosis in HL-60 cells, flow cytometry (hypodiploid DNA); assay type: cell-based; conditions: 30, 20, 15, 10 μM methadone, 24 h and 48 h
[13] = test system: human lymphoblastic leukaemia T-cell line CEM; assay: Induction of apoptosis in CEM cells, flow cytometry (hypodiploid DNA); assay type: cell-based; conditions: 30, 20, 15, 10 μM methadone, 24 h and 48 h
[14] = test system: Human acute myeloid leukaemia HL-60 cell line; assay: Induction of apoptosis in HL-60 cell line (5000 cells/100 μl), long incubation, flow cytometry; assay type: cell-based
[15] = leukaemia cells after methadone treatment
[16] = 1 μg/mL methadone in addition of 0.1 μg/mL doxorubicin, 72 h

CC(C)[C@H](NC(=O)OCc1ccccc1)C(=O)N[C@@H](C)C(=O)N[C@@H](CC(=O)O)C(=O)CF [zVAD.fmk, benzoyl carbonyl-Val-Ala-Asp-fluoromethyl ketone] (Cbz-Val-Ala-Asp-CH2F)
inhibition of methadone-induced apoptosis [1]: almost completely inhibited | inhibition of methadone-induced apoptosis [2]: almost completely inhibited

CCC(=O)C(CC(C)N(C)C)(c1ccccc1)c1ccccc1 (racemic) [methadone, D, L-methadone hydrochloride]
apoptosis, cells [3]: over 80% | induction of apoptosis [4]: strong induction of apoptosis | down regulation of Bcl-xL [5]: strong down regulation | down regulation of XIAP [5]: strong down regulation | down regulation of Bcl-xL [6]: strong down regulation | down regulation of XIAP [6]: strong down regulation | induction of apoptosis [7]: strong induction of apoptosis | Activation of caspase-8 [8, 15]: not found | Up regulation of Bax [8, 15]: not found | up regulation of death-inducing ligands and death-inducing receptors such as CD95 ([8]; leukaemia cells after methadone treatment (data not shown)): not found | down regulation of Bcl-xL [9]: strong down regulation | down regulation of XIAP [9]: strong down regulation | apoptotic effect of the combination with doxorubicin [10, 16]: strong apoptotic effect | synergy with doxorubicin [10, 16]: synergistic effects | dead cells (specific cell death) ([10]; 20 μg/mL methadone, 120 h): more than 20% | dead cells (specific cell death) ([10]; 20 μg/mL methadone, 168 h): more than 80% | dead cells (specific cell death) ([10]; 30 μg/mL methadone, 120 h): more than 85% | dead cells (specific cell death) ([10]; 30 μg/mL methadone, 168 h): ~100% | down regulation of Bcl-xL [11]: strong down regulation | down regulation of XIAP [11]: strong down regulation | induction of apoptosis [12]: strong induction of apoptosis | induction of apoptosis [13]: strong induction of apoptosis

CN1CC[C@]23c4c5ccc(O)c4O[C@H]2[C@@H](O)C=C[C@H]3[C@H]1C5 [morphine, Morphine]
apoptosis, cells ([14]; HL-60, first study, 40 μg/mL morphine, 144 h): 40% | apoptosis, cells ([14]; HL-60, second study, 1 μg/mL morphine, 168 h): more than 50% | apoptosis, cells ([14]; HL-60, third study, 1 μg/mL morphine in combination with 0.001 μg/mL doxorubicin, 168 h): 50%
